In ChEMBL document CHEMBL1201862, “PubChem BioAssay data set” (2004):
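Step 1: Grow cells in 96-well plates. Step 2: Expose to compound for 48 hours at 5 concentrations. Step 3: Interpolate endpoints linearly; if unreached, use highest concentration. At the GI50, growth is halved.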 The source made the active and inactive calls. Cut-off read from the data, not from the text of the source: active = GI50 up to about 1.1 µM and inactive = higher.

Experiments:
Experiment in all cases: NCI tumour cell line growth inhibition, 48 h
[1] = test system: 786-0
[2] = test system: A498
[3] = test system: A549
[4] = test system: ACHN
[5] = test system: BT-549
[6] = test system: CAKI-1
[7] = test system: CCRF-CEM
[8] = test system: COLO 205
[9] = test system: DU-145
[10] = test system: EKVX
[11] = test system: HCC 2998
[12] = test system: HCT-116
[13] = test system: HCT-15
[14] = test system: HL-60
[15] = test system: HOP-62
[16] = test system: HOP-92
[17] = test system: HT-29
[18] = test system: Hs-578T
[19] = test system: IGROV-1
[20] = test system: K562
[21] = test system: KM12
[22] = test system: LOX IMVI
[23] = test system: M14
[24] = test system: MCF7
[25] = test system: MDA-MB-231
[26] = test system: MDA-MB-435
[27] = test system: MDA-N
[28] = test system: MOLT-4
[29] = test system: Malme-3M
[30] = test system: NCI-H226
[31] = test system: NCI-H23
[32] = test system: NCI-H460
[33] = test system: NCI-H522
[34] = test system: NCI/ADR-RES
[35] = test system: OVCAR-3
[36] = test system: OVCAR-4
[37] = test system: OVCAR-5
[38] = test system: OVCAR-8
[39] = test system: PC-3
[40] = test system: RPMI-8226
[41] = test system: RXF 393
[42] = test system: SF-268
[43] = test system: SF-295
[44] = test system: SF-539
[45] = test system: SK-MEL-28
[46] = test system: SK-MEL-2
[47] = test system: SK-MEL-5
[48] = test system: SK-OV-3
[49] = test system: SN12C
[50] = test system: SNB-19
[51] = test system: SNB-75
[52] = test system: SR
[53] = test system: SW-620
[54] = test system: T47D
[55] = test system: TK-10
[56] = test system: U-251
[57] = test system: UACC-257
[58] = test system: UACC-62
[59] = test system: UO-31

CC1OC(OC2C(O[C@H]3CC[C@@]4(C)C(=CC[C@H]5[C@@H]6C[C@@H]7O[C@]8(CC[C@@H](C)CO8)[C@@H](C)[C@@H]7[C@@]6(C)CC[C@@H]54)C3)OC(CO)C(O)C2O)C(O)C(O)C1O (stereo partly specified)
GI50 [1]: 1.14 µM (inactive)
GI50 [2]: 1.51 µM (inactive)
GI50 [3]: 0.647 µM (active)
GI50 [4]: 1.58 µM (inactive)
GI50 [5]: 4.49 µM (inactive)
GI50 [6]: 1.7 µM (inactive)
GI50 [7]: 0.507 µM (active)
GI50 [8]: 2.95 µM (inactive)
GI50 [9]: 1.26 µM (inactive)
GI50 [10]: 3.1 µM (inactive)
GI50 [11]: 1.11 µM (active)
GI50 [12]: 1.54 µM (inactive)
GI50 [13]: 1.96 µM
GI50 [14]: 0.74 µM (active)
GI50 [15]: 1.34 µM (inactive)
GI50 [16]: 2.95 µM (inactive)
GI50 [17]: 0.962 µM (active)
GI50 [18]: 1.86 µM (inactive)
GI50 [19]: 2.8 µM (inactive)
GI50 [20]: 1.57 µM (inactive)
GI50 [21]: 0.838 µM (active)
GI50 [22]: 0.805 µM (active)
GI50 [23]: 1.22 µM (inactive)
GI50 [24]: 1.82 µM (inactive)
GI50 [25]: 1.14 µM (inactive)
GI50 [26]: 1.41 µM (inactive)
GI50 [27]: 3.29 µM (inactive)
GI50 [28]: 2.64 µM (inactive)
GI50 [29]: 3.15 µM (inactive)
GI50 [30]: 2.49 µM (inactive)
GI50 [31]: 2.28 µM (inactive)
GI50 [32]: 0.327 µM (active)
GI50 [33]: 1.28 µM (inactive)
GI50 [34]: 1.99 µM (inactive)
GI50 [35]: 3.4 µM (inactive)
GI50 [36]: 1.22 µM (inactive)
GI50 [37]: 2.93 µM (inactive)
GI50 [38]: 1.45 µM (inactive)
GI50 [39]: 0.581 µM (active)
GI50 [40]: 0.698 µM (active)
GI50 [41]: 1.54 µM (inactive)
GI50 [42]: 2.44 µM (inactive)
GI50 [43]: 1.15 µM (inactive)
GI50 [44]: 1.21 µM (inactive)
GI50 [45]: 5.31 µM (inactive)
GI50 [46]: 2.63 µM (inactive)
GI50 [47]: 3.97 µM (inactive)
GI50 [48]: 3.05 µM (inactive)
GI50 [49]: 1.1 µM (active)
GI50 [50]: 1.01 µM (active)
GI50 [51]: 1.24 µM (inactive)
GI50 [52]: 2.77 µM (inactive)
GI50 [53]: 0.681 µM (active)
GI50 [54]: 3.76 µM (inactive)
GI50 [55]: 1.53 µM (inactive)
GI50 [56]: 0.544 µM (active)
GI50 [57]: 1.8 µM (inactive)
GI50 [58]: 1.4 µM (inactive)
GI50 [59]: 0.638 µM (active)

O=C1c2ccccc2CC12Cc1ccc3c(c1C2)CCC3 (stereo unspecified)
GI50 [1]: 20.6 µM (inactive)
GI50 [2]: 85.3 µM (inactive)
GI50 [3]: 17.5 µM (inactive)
GI50 [4]: 22.6 µM (inactive)
GI50 [5]: 35.8 µM (inactive)
GI50 [6]: 26.8 µM (inactive)
GI50 [7]: 16.8 µM (inactive)
GI50 [8]: 19 µM (inactive)
GI50 [9]: 34.6 µM (inactive)
GI50 [10]: 16.9 µM (inactive)
GI50 [11]: 24.3 µM (inactive)
GI50 [12]: 16.9 µM (inactive)
GI50 [13]: 14.6 µM
GI50 [14]: 12.6 µM (inactive)
GI50 [15]: 23.3 µM (inactive)
GI50 [16]: 14 µM (inactive)
GI50 [17]: 13.3 µM (inactive)
GI50 [18]: 21 µM (inactive)
GI50 [19]: 25.5 µM (inactive)
GI50 [20]: 22.3 µM (inactive)
GI50 [21]: 24.4 µM (inactive)
GI50 [22]: 12.4 µM (inactive)
GI50 [23]: 19.1 µM (inactive)
GI50 [24]: 16.9 µM (inactive)
GI50 [25]: 12 µM (inactive)
GI50 [26]: 16.1 µM (inactive)
GI50 [27]: 19.8 µM (inactive)
GI50 [28]: 23.8 µM (inactive)
GI50 [29]: 13.6 µM (inactive)
GI50 [30]: 22.8 µM (inactive)
GI50 [31]: 28.8 µM (inactive)
GI50 [32]: 23.7 µM (inactive)
GI50 [33]: 4.54 µM (inactive)
GI50 [34]: 4.24 µM (inactive)
GI50 [35]: 17.4 µM (inactive)
GI50 [36]: 22.2 µM (inactive)
GI50 [37]: 17.2 µM (inactive)
GI50 [38]: 28.8 µM (inactive)
GI50 [39]: 26 µM (inactive)
GI50 [40]: 19 µM (inactive)
GI50 [41]: 16.4 µM (inactive)
GI50 [42]: 30 µM (inactive)
GI50 [43]: 25.4 µM (inactive)
GI50 [44]: 27.5 µM (inactive)
GI50 [45]: 31 µM (inactive)
GI50 [46]: 15.9 µM (inactive)
GI50 [47]: 15.5 µM (inactive)
GI50 [48]: 33.3 µM (inactive)
GI50 [49]: 26.7 µM (inactive)
GI50 [50]: 48.1 µM (inactive)
GI50 [51]: 20.3 µM (inactive)
GI50 [52]: 14 µM (inactive)
GI50 [53]: 30.5 µM (inactive)
GI50 [54]: 19.1 µM (inactive)
GI50 [55]: 2.36 µM (inactive)
GI50 [56]: 16.9 µM (inactive)
GI50 [57]: 11.7 µM (inactive)
GI50 [58]: 20.3 µM (inactive)
GI50 [59]: 23.4 µM (inactive)

CCc1cccc(C(C)(C)C)c1NC(=S)N/C=C(/C#N)C(N)=O
GI50 [1]: > 100 µM (inactive)
GI50 [2]: > 100 µM (inactive)
GI50 [3]: > 100 µM (inactive)
GI50 [4]: > 100 µM (inactive)
GI50 [5]: 44.8 µM (inactive)
GI50 [6]: > 100 µM (inactive)
GI50 [7]: > 100 µM (inactive)
GI50 [8]: > 100 µM (inactive)
GI50 [9]: > 100 µM (inactive)
GI50 [10]: > 100 µM (inactive)
GI50 [11]: > 100 µM (inactive)
GI50 [12]: > 100 µM (inactive)
GI50 [13]: 62.4 µM
GI50 [14]: 93.1 µM (inactive)
GI50 [15]: > 100 µM (inactive)
GI50 [16]: 14 µM (inactive)
GI50 [17]: > 100 µM (inactive)
GI50 [18]: 83 µM (inactive)
GI50 [19]: > 100 µM (inactive)
GI50 [20]: > 100 µM (inactive)
GI50 [21]: > 100 µM (inactive)
GI50 [22]: > 100 µM (inactive)
GI50 [23]: > 100 µM (inactive)
GI50 [24]: > 100 µM (inactive)
GI50 [25]: > 100 µM (inactive)
GI50 [26]: > 100 µM (inactive)
GI50 [27]: > 100 µM (inactive)
GI50 [28]: > 100 µM (inactive)
GI50 [29]: > 100 µM (inactive)
GI50 [30]: > 100 µM (inactive)
GI50 [31]: > 100 µM (inactive)
GI50 [32]: > 100 µM (inactive)
GI50 [33]: > 100 µM (inactive)
GI50 [34]: > 100 µM (inactive)
GI50 [35]: 92.7 µM (inactive)
GI50 [36]: > 100 µM (inactive)
GI50 [37]: > 100 µM (inactive)
GI50 [38]: > 100 µM (inactive)
GI50 [39]: > 100 µM (inactive)
GI50 [40]: > 100 µM (inactive)
GI50 [41]: > 100 µM (inactive)
GI50 [42]: > 100 µM (inactive)
GI50 [43]: > 100 µM (inactive)
GI50 [44]: > 100 µM (inactive)
GI50 [45]: > 100 µM (inactive)
GI50 [46]: > 100 µM (inactive)
GI50 [47]: > 100 µM (inactive)
GI50 [48]: > 100 µM (inactive)
GI50 [49]: > 100 µM (inactive)
GI50 [50]: > 100 µM (inactive)
GI50 [51]: 30.9 µM (inactive)
GI50 [52]: > 10 µM (inactive)
GI50 [53]: > 100 µM (inactive)
GI50 [54]: 95.5 µM (inactive)
GI50 [56]: > 100 µM (inactive)
GI50 [57]: > 100 µM (inactive)
GI50 [58]: > 100 µM (inactive)
GI50 [59]: 31.3 µM (inactive)
